The source of these data is paper PMC4737155 (Nucleic Acids Research, 2015).

As a reminder, the Kd is the concentration at which binding is half-saturated. Read a low Kd as higher affinity.

Common to all, as to experiment: biochemical
Test [1] addresses SaTrm10 (Sulfolobus acidocaldarius, UniProt Q4J894, D184N).
The target in test [2] is SaTrm10 (Sulfolobus acidocaldarius, UniProt Q4J894, D220N).
In test [3] the target is T1, SaTrm10 (Sulfolobus acidocaldarius, UniProt Q4J894).
T1 sequence (Q4J894 1-292): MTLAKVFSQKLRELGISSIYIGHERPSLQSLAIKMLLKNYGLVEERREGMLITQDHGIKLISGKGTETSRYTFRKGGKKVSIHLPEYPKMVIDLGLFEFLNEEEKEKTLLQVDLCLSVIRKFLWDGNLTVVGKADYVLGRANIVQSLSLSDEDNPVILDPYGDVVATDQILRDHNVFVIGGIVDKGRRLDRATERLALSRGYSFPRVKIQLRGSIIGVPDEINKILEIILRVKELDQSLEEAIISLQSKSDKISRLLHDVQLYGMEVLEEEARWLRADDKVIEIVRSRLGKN

Sequence of SaTrm10 (Sulfolobus acidocaldarius, UniProt Q4J894, D220N) (Q4J894 whole entry D220N): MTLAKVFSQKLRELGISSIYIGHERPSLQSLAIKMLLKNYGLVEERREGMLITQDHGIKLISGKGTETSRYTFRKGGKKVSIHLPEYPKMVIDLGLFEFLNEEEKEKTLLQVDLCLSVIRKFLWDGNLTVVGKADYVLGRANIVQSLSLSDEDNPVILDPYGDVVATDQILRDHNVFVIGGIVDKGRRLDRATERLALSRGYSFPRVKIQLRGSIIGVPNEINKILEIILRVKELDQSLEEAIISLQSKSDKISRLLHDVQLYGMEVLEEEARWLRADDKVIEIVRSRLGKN
Sequence of SaTrm10 (Sulfolobus acidocaldarius, UniProt Q4J894, D184N) (Q4J894 whole entry D184N): as the sequence (Q4J894 whole entry D220N) above, with D184N, N220D counted along it

On to `C[S+](CC[C@H](N)C(=O)O)C[C@H]1O[C@@H](n2cnc3c(N)ncnc32)[C@H](O)[C@@H]1O` (stereo partly drawn) [S-adenosyl methionine], for which the Kd was found to be 28 ± 5 µM at SaTrm10 [1], 47 ± 8 µM at SaTrm10 [2] and 33 ± 4 µM on SaTrm10 [3].
